Assay results published in US20250268903A1, “RXFP1 AGONISTS” (BRISTOL-MYERS SQUIBB COMPANY, priority 2021, published 2025).

Biological target: T1, human RXFP1 (Homo sapiens, UniProt Q9HBX9)
T1 construct: expressed in transfected cells
T1 sequence (Q9HBX9 1-757): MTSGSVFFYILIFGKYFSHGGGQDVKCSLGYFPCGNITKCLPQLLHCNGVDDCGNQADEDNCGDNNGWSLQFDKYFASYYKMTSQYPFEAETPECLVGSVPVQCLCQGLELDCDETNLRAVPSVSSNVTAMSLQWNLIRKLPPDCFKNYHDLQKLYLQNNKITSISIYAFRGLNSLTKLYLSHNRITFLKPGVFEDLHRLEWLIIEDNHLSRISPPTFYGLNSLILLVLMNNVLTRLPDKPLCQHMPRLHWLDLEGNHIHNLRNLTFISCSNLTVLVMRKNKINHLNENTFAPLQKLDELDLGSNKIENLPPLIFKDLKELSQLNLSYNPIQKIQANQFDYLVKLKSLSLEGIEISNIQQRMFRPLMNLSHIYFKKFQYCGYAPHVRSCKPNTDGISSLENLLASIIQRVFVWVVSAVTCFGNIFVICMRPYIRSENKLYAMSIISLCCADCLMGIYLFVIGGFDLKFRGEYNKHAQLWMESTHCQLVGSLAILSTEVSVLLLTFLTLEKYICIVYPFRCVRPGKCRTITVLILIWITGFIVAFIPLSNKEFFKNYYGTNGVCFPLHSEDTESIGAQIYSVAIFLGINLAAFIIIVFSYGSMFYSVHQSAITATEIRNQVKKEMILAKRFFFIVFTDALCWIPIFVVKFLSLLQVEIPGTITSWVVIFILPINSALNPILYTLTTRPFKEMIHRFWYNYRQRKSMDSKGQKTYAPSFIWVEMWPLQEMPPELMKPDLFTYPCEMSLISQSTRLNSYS
Assay: hRXFP1 HEK293 cAMP assay (HTRF)
Format: cell-based
Details: HEK293 cells stably expressing human RXFP1, 30 min at room temperature
Outline: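 HEK293 cells stably expressing human RXFP1 (1500 cells/well) in HBSS/20 mM HEPES/0.05% BSA/0.5 mM IBMX. Compounds were tested at 0.010 nM–50 μM final (2% DMSO) for 30 min at room temperature. cAMP was measured by HTRF and values derived by 4-parameter logistic fit.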

EC50	Compound
210 nM	COC(=O)C1CC(c2ccc(OC)c(C(=O)N[C@H]3[C@@H](C(=O)Nc4ccc(F)c(C(F)(F)F)c4)[C@H]4CC[C@@H]3/C4=C\C(F)(F)F)c2)C1 (stereo partly drawn) [Example 329, methyl 3-(3-{[(1R,2R,3S,4R,7Z)-3-{[4-fluoro-3-(trifluoromethyl)phenyl]carbamoyl}-7-(2,2,2-trifluoroethylidene)bicyclo[2.2.1]heptan-2-yl]carbamoyl}-4-methoxyphenyl) cyclobutane-1-carboxylate]
79 nM	COc1ccc(C2CC(CO)C2)cc1C(=O)N[C@H]1[C@@H](C(=O)Nc2ccc(F)c(C(F)(F)F)c2)[C@H]2CC[C@@H]1/C2=C\C1CC1 (stereo partly drawn) [Example 330, (1R,2S,3R,4R,7Z)-7-(cyclopropylmethylidene)-N-[4-fluoro-3-(trifluoromethyl)phenyl]-3-{5-[3-(hydroxymethyl)cyclobutyl]-2-methoxybenzamido} bicyclo[2.2.1]heptane-2-carboxamide]
551 nM	COC(=O)C1CC(c2ccc(OC)c(C(=O)N[C@H]3[C@@H](C(=O)Nc4ccc(F)c(C(F)(F)F)c4)[C@H]4CC[C@@H]3/C4=C\C(F)(F)F)c2)C1 (stereo partly drawn) [Example 331, methyl 3-(3-{(1R.2R,3S,4R,7Z)-3-{[4-fluoro-3-(trifluoromethyl)phenyl]carbamoyl}-7-(2,2,2-trifluoroethylidene)bicyclo[2.2.1]heptan-2-yl]carbamoyl}-4-methoxyphenyl) cyclobutane-1-carboxylate]
62.3 nM	COc1ccc(C2CC(CO)C2)cc1C(=O)N[C@H]1[C@@H](C(=O)Nc2ccc(F)c(C(F)(F)F)c2)[C@H]2CC[C@@H]1/C2=C\C1CC1 (stereo partly drawn) [Example 333, (1R,2S,3R,4R,7Z)-7-(cyclopropyl-methylidene)-N-[4-fluoro-3-(trifluoromethyl)phenyl]-3-[5-[3-(hydroxymethyl)cyclobutyl]-2-methoxybenzamido} bicyclo[2.2.1]heptane-2-carboxamide]
181 nM	COc1ccc(C23CCC2CC(CO)C3)cc1C(=O)N[C@H]1[C@@H](C(=O)Nc2ccc(F)c(C(F)(F)F)c2)[C@H]2CC[C@@H]1/C2=C\C1CC1 (stereo partly drawn) [Example 353, (1R,2S,3R,4R,7Z)-7-(cyclopropyl-methylidene)-N-[4-fluoro-3-(trifluoromethyl)phenyl]-3-{5-[3-(hydroxymethyl)bicyclo[3.2.0]heptan-1-yl]-2-methoxybenzamido} bicyclo[2.2.1]heptane-2-carboxamide]
4990 nM	COc1ccc(C2CCCC(NCC(=O)O)C2)cc1C(=O)N[C@@H]1C2CCC(/C2=C/C(F)(F)F)[C@@H]1C(=O)Nc1ccc(F)c(C(F)(F)F)c1 (stereo partly shown) [Example 354]
4960 nM	COc1ccc(C2CCCC(N3CC(F)(F)C3)C2)cc1C(=O)N[C@H]1[C@@H](C(=O)Nc2ccc(F)c(C(F)(F)F)c2)[C@H]2CC[C@@H]1/C2=C\C(F)(F)F (stereo partly drawn) [Example 355, (1R,2S,3R,4R,7Z)-3-[5-13-(3,3-difluoroazetidin-1-yl)cyclohexyl]-2-methoxybenzamido 3-N-[4-fluoro-3-(trifluoromethyl)phenyl]-7-(2,2,2-trifluoroethylidene) bicyclo[2.2.1] heptane-2-carboxamide]
4020 nM	COC(=O)[C@@H]1CCN(C(=O)Cc2ccc(OC)c(C(=O)NC3C(C(=O)Nc4ccc(F)c(C(F)(F)F)c4)[C@H]4CC[C@@H]3/C4=C\C3CC3)c2)C1 (stereo partly shown) [Example 356]
1290 nM	COc1ccc(CC(=O)N2CCC(C)(O)C2)cc1C(=O)NC1C(C(=O)Nc2ccc(F)c(C(F)(F)F)c2)[C@H]2CC[C@@H]1/C2=C\C1CC1 (stereo partly drawn) [Example 357, (1R,4R,7Z)-7-(cyclopropyl-methylidene)-N-[4-fluoro-3-(trifluoromethyl)phenyl]-3-{5-[2-(3-hydroxy-3-methylpyrrolidin-1-yl)-2-oxoethyl]-2-methoxybenzamido} bicyclo[2.2.1]heptane-2-carboxamide]
1500 nM	COc1ccc(C(F)(F)F)cc1C(=O)N[C@@H]1C2CCC(C2=C(C)C)[C@@H]1C(=O)Nc1ccc(F)c(C(F)(F)F)c1 (stereo partly shown) [Example 359]
2000 nM	COc1ccc(C)cc1C(=O)N[C@@H]1C2CCC(C2=C(C)C)[C@@H]1C(=O)Nc1ccc(F)c(C(F)(F)F)c1 (stereo partly drawn) [Example 360, (2S,3R)-N-[4-fluoro-3-(trifluoromethyl)phenyl]-3-(2-methoxy-5-methylbenzamido)-7-(propan-2-ylidene)bicyclo[2.2.1] heptane-2-carboxamide]
3 nM	COc1ccc([C@@H]2CCC(CC(C)(C)O)C2)cc1C(=O)N[C@H]1[C@@H](C(=O)Nc2ccc(F)c(C(F)(F)F)c2)[C@H]2CC[C@@H]1/C2=C\C1CCCC1 (stereo partly drawn) [Example 362, (1R,2S,3R,4R,Z)-7-(cyclopentyl-methylene)-N-(4-fluoro-3-(trifluoromethyl)phenyl)-3-(5-((1R)-3-(2-hydroxy-2-methylpropyl)cyclopentyl)-2-methoxybenzamido) bicyclo[2.2.1] heptane-2-carboxamide]
3.9 nM	COc1ccc(C2CC(C(C)(C)O)C2)cc1C(=O)N[C@H]1[C@@H](C(=O)Nc2ccc(F)c(C(F)(F)F)c2)[C@H]2CC[C@@H]1/C2=C\C1CCCC1 (stereo partly drawn) [Example 363, (1R,2S,3R,4R,Z)-7-(cyclopentyl-methylene)-N-(4-fluoro-3-(trifluoromethyl)phenyl)-3-(5-(3-(2-hydroxypropan-2-yl)cyclobutyl)-2-methoxybenzamido) bicyclo[2.2.1] heptane-2-carboxamide]
1.1 nM	COc1ccc(COc2c(F)cccc2C(OC(=O)Nc2ccccc2)C(F)(F)F)cc1C(=O)N[C@H]1[C@@H](C(=O)Nc2ccc(F)c(C(F)(F)F)c2)[C@H]2CC[C@@H]1/C2=C\C1CC1 (stereo partly drawn) [Example 364, 1-(2-((3-(((1R,2R,3S,4R,Z)-7-(cyclopropyl-methylene)-3-((4-fluoro-3-(trifluoromethyl)phenyl)carbamoyl)bicyclo[2.2.1]heptan-2-yl)carbamoyl)-4-methoxybenzyl)oxy)-3-fluorophenyl)-2,2,2-trifluoroethyl phenylcarbamate]
2.8 nM	COc1c(F)cc(C(=O)N2CC(S(C)(=O)=O)C2)cc1C(=O)N[C@H]1[C@@H](C(=O)Nc2ccc(F)c(C(F)(F)F)c2)[C@H]2CC[C@@H]1/C2=C\C1CCCC1 [Example 365, (1R,2S,3R,4R,7Z)-7-(cyclopentyl-methylidene)-N-[4-fluoro-3-(trifluoromethyl)phenyl]-3-[3-fluoro-5-(3-methanesulfonyl-azetidine-1-carbonyl)-2-methoxybenzamido] bicyclo[2.2.1]heptane-2-carboxamide]
3.1 nM	COc1c(F)cc(C(=O)NCC2(S(C)(=O)=O)CC2)cc1C(=O)N[C@H]1[C@@H](C(=O)Nc2ccc(F)c(C(F)(F)F)c2)[C@H]2CC[C@@H]1/C2=C\C1CC1 [Example 366, N3-[(1R,2R,3S,4R,7Z)-7-(cyclopropyl-methylidene)-3-{[4-fluoro 3-(trifluoromethyl)phenyl]carbamoyl}bicyclo[2.2.1]heptan-2-yl]-5-fluoro-N1-[(1-methanesulfonyl-cyclopropyl)methyl]-4-methoxybenzene-1,3-dicarboxamide]
2.3 nM	COc1c(F)cc(C(=O)NCC2(S(C)(=O)=O)CC2)cc1C(=O)N[C@H]1[C@@H](C(=O)Nc2ccc(F)c(C(F)(F)F)c2)[C@H]2CC[C@@H]1/C2=C\C1CCCC1 [Example 367, N3-[(1R,2R,3S,4R,7Z)-7-(cyclopentyl-methylidene)-3-{[4-fluoro-3-(trifluoromethyl)phenyl]carbamoyl}bicyclo[2.2.1]heptan-2-yl]-5-fluoro-N1-[(1-methanesulfonyl-cyclopropyl)methyl]-4-methoxybenzene-1,3-dicarboxamide]
9.1 nM	COc1c(F)cc(C(=O)NCC2(S(C)(=O)=O)CC2)cc1C(=O)N[C@H]1[C@@H](C(=O)Nc2ccc(F)c(C(F)(F)F)c2)[C@H]2CC[C@@H]1/C2=C\C(F)(F)F [Example 368, 5-fluoro-N3-[(1R,2R,3S,4R,7Z)-3-{[4-fluoro-3-(trifluoromethyl)phenyl]carbamoyl}-7-(2,2,2-trifluoroethylidene)bicyclo[2.2.1]heptan-2-yl]-N1-[(1-methanesulfonyl-cyclopropyl)methyl]-4-methoxybenzene-1,3-dicarboxamide]
3 nM	COc1c(F)cc(C(=O)NCC2(S(C)(=O)=O)CC2)cc1C(=O)N[C@H]1[C@@H](C(=O)N[C@H](C)C2(C)CC2)[C@H]2CC[C@@H]1/C2=C\C1CC1 [Example 369, N3-[(1R,2R,3S,4R,7Z)-7-(cyclopropyl-methylidene)-3-{[(1R)-1-(1-methylcyclopropyl)ethyl]carbamoyl}bicyclo[2.2.1]heptan-2-yl]-5-fluoro-N1-[(1-methanesulfonyl-cyclopropyl)methyl]-4-methoxybenzene-1,3-dicarboxamide]
